Results from PubChem BioAssay AID330 (DTP/NCI, 2004).
Values joined by “and” are separate entries in the source; they are usually repeats but may differ in a detail not shown here. Equal values may be shown once. Toxic doses and inconclusive results are not listed. How the source made its calls: active means survival T/C of 150% or more; inactive means T/C below 125% in these data.

Tested on: P388 leukemia ip, CD2F1 mice, survival T/C
Assay: NCI In Vivo Anticancer Drug Screen. Data for tumor model P388 Leukemia (intraperitoneal) in CD2F1 (CDF1) mice
Settings: endpoint: median survival time, higher = longer survival
Method in brief: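 Mice carrying the transplanted tumor received test compound or vehicle. Survival was recorded in each group, and the value is the treated-group measurement divided by that of the vehicle-treated control group.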

[1] = dose: 100.0 mg/kg/injection, schedule: Q04DX002 (ip), vehicle: saline
[2] = dose: 200.0 mg/kg/injection, schedule: Q04DX002 (ip), vehicle: saline
[3] = dose: 400.0 mg/kg/injection, schedule: Q04DX002 (ip), vehicle: saline
[4] = dose: 50.0 mg/kg/injection, schedule: Q01DX009 (ip), vehicle: saline with Tween-80
[5] = dose: 100.0 mg/kg/injection, schedule: Q01DX009 (ip), vehicle: saline with Tween-80
[6] = dose: 200.0 mg/kg/injection, schedule: Q01DX009 (ip), vehicle: saline with Tween-80

Measured: T/C

Cc1cc(=O)c2c(ccc3c(=O)cc(C)[nH]c32)[nH]1
inactive: dose: 30.0 mg/kg/injection, schedule: Q01DX005 (ip), vehicle: saline with Tween-80 93 % of control | dose: 60.0 mg/kg/injection, schedule: Q01DX005 (ip), vehicle: saline with Tween-80 91 % of control | dose: 120.0 mg/kg/injection, schedule: Q01DX005 (ip), vehicle: saline with Tween-80 100 % of control and 91 % of control

Cc1nc(=S)c2ncn(-c3ccccc3)c2[nH]1
inactive: dose: 60.0 mg/kg/injection, schedule: Q01DX005 (ip), vehicle: Klucel (hydroxypropylcellulose) (HPC) 95 % of control | dose: 120.0 mg/kg/injection, schedule: Q01DX005 (ip), vehicle: Klucel (hydroxypropylcellulose) (HPC) 94 % of control

Cc1ccccc1NC(=O)Cc1ccccc1
inactive: dose: 6.25 mg/kg/injection, schedule: Q01DX009 (ip), vehicle: Klucel (hydroxypropylcellulose) (HPC) 99 % of control | dose: 12.5 mg/kg/injection, schedule: Q01DX009 (ip), vehicle: Klucel (hydroxypropylcellulose) (HPC) 104 % of control | dose: 25.0 mg/kg/injection, schedule: Q01DX009 (ip), vehicle: Klucel (hydroxypropylcellulose) (HPC) 94 % of control | dose: 50.0 mg/kg/injection, schedule: Q01DX009 (ip), vehicle: Klucel (hydroxypropylcellulose) (HPC) 108 % of control | dose: 100.0 mg/kg/injection, schedule: Q01DX009 (ip), vehicle: Klucel (hydroxypropylcellulose) (HPC) 95 % of control

CNC(=O)C1OCCOCCOC(C(=O)NC)C(C(=O)NC)OCCOCCOC1C(=O)NC (centres undefined)
inactive: dose: 50.0 mg/kg/injection, schedule: Q01DX005 (ip), vehicle: Klucel (hydroxypropylcellulose) (HPC) 96 % of control | dose: 100.0 mg/kg/injection, schedule: Q01DX005 (ip), vehicle: Klucel (hydroxypropylcellulose) (HPC) 98 % of control | dose: 200.0 mg/kg/injection, schedule: Q01DX005 (ip), vehicle: Klucel (hydroxypropylcellulose) (HPC) 97 % of control

OCC1OC(n2cnc3c2NC=NC[C@H]3O)C(O)C1O (some centres undefined)
inactive: dose: 0.1 mg/kg/injection, schedule: Q01DX009 (ip), vehicle: saline 106 % of control | dose: 0.2 mg/kg/injection, schedule: Q01DX005 (ip), vehicle: saline 104 % of control | dose: 0.2 mg/kg/injection, schedule: Q01DX009 (ip), vehicle: saline 111 % of control | dose: 0.4 mg/kg/injection, schedule: Q01DX005 (ip), vehicle: saline 107 % of control | dose: 0.4 mg/kg/injection, schedule: Q01DX009 (ip), vehicle: saline 103 % of control | dose: 0.78 mg/kg/injection, schedule: Q01DX005 (ip), vehicle: saline 99 % of control | dose: 0.8 mg/kg/injection, schedule: Q01DX005 (ip), vehicle: saline 100 % of control | dose: 1.56 mg/kg/injection, schedule: Q01DX005 (ip), vehicle: saline 97 % of control

O=C(CNOCc1ccccc1)OCc1ccccc1
inactive: dose: 12.5 mg/kg/injection, schedule: Q01DX009 (ip), vehicle: other 88 % of control | dose: 25.0 mg/kg/injection, schedule: Q01DX009 (ip), vehicle: other 96 % of control | dose: 50.0 mg/kg/injection, schedule: Q01DX009 (ip), vehicle: other 99 % of control | dose: 100.0 mg/kg/injection, schedule: Q01DX009 (ip), vehicle: other 97 % of control | dose: 200.0 mg/kg/injection, schedule: Q01DX009 (ip), vehicle: other 108 % of control

CC(=O)c1c(O)c(C)c(O)c2c1OC1=CC(=O)C(C(C)=O)C(=O)C12C (centres undefined)
inactive: dose: 6.25 mg/kg/injection, schedule: Q01DX009 (ip), vehicle: saline with Tween-80 100 % of control and 122 % of control | dose: 12.5 mg/kg/injection, schedule: Q01DX009 (ip), vehicle: saline with Tween-80 115 % of control and 97 % of control | dose: 12.5 mg/kg/injection, schedule: Q01DX009 (ip), vehicle: saline 97 % of control | dose: 25.0 mg/kg/injection, schedule: Q01DX009 (ip), vehicle: saline with Tween-80 101 % of control and 103 % of control (2×) | dose: 50.0 mg/kg/injection, schedule: Q01DX009 (ip), vehicle: saline 109 % of control and 111 % of control

O=S(=O)(Nc1ccnn1-c1ccccc1)c1ccc(NC(=S)Nc2ccccc2)cc1
inactive: dose: 50.0 mg/kg/injection, schedule: Q01DX005 (ip), vehicle: saline with Tween-80 96 % of control | dose: 100.0 mg/kg/injection, schedule: Q01DX005 (ip), vehicle: saline with Tween-80 93 % of control | dose: 200.0 mg/kg/injection, schedule: Q01DX005 (ip), vehicle: saline with Tween-80 91 % of control

COc1ccc2c(c1OC)OCC(CN(C)C)C2=O (centres undefined)
inactive: dose: 15.0 mg/kg/injection, schedule: Q01DX005 (ip), vehicle: saline 100 % of control and 102 % of control | dose: 30.0 mg/kg/injection, schedule: Q01DX005 (ip), vehicle: saline 108 % of control and 111 % of control | dose: 60.0 mg/kg/injection, schedule: Q01DX005 (ip), vehicle: saline 106 % of control and 110 % of control and 114 % of control | dose: 120.0 mg/kg/injection, schedule: Q01DX005 (ip), vehicle: saline 114 % of control and 116 % of control

COc1cc2c(cc1O)-c1oncc1CCC2
inactive: [1] 94 % of control | [2] 98 % of control | [3] 95 % of control

NC(=S)c1ccc(N=Cc2cccs2)cc1
inactive: dose: 100.0 mg/kg/injection, schedule: Q01DX001 (ip), vehicle: Klucel (hydroxypropylcellulose) (HPC) 108 % of control | dose: 200.0 mg/kg/injection, schedule: Q01DX001 (ip), vehicle: Klucel (hydroxypropylcellulose) (HPC) 105 % of control | dose: 400.0 mg/kg/injection, schedule: Q01DX001 (ip), vehicle: Klucel (hydroxypropylcellulose) (HPC) 102 % of control

CN(C)CCOC(c1ccccc1)c1ccccc1
inactive: dose: 25.0 mg/kg/injection, schedule: Q04DX003 (ip), vehicle: saline 100 % of control | dose: 50.0 mg/kg/injection, schedule: Q04DX003 (ip), vehicle: saline 100 % of control | dose: 100.0 mg/kg/injection, schedule: Q04DX003 (ip), vehicle: saline 108 % of control

CCn1c(=O)c2[nH]c(Cl)nc2n(CCCOC)c1=O
inactive: dose: 100.0 mg/kg/injection, schedule: Q04DX002 (ip), vehicle: Klucel (hydroxypropylcellulose) (HPC) 101 % of control | dose: 200.0 mg/kg/injection, schedule: Q04DX002 (ip), vehicle: Klucel (hydroxypropylcellulose) (HPC) 95 % of control | dose: 400.0 mg/kg/injection, schedule: Q04DX002 (ip), vehicle: Klucel (hydroxypropylcellulose) (HPC) 87 % of control

O=c1oc(-c2cc([N+](=O)[O-])ccc2Cl)nc2ccccc12
inactive: dose: 33.0 mg/kg/injection, schedule: Q04DX003 (ip), vehicle: saline with Tween-80 100 % of control | dose: 50.0 mg/kg/injection, schedule: Q04DX003 (ip), vehicle: saline with Tween-80 100 % of control | dose: 75.0 mg/kg/injection, schedule: Q04DX003 (ip), vehicle: saline with Tween-80 99 % of control

CN(C)c1ccc(C2(c3ccc(N(C)C)cc3)NNC(=O)c3cc(N(C)C)ccc32)cc1
inactive: dose: 1.5 mg/kg/injection, schedule: Q01DX005 (ip), vehicle: saline 100 % of control | dose: 3.0 mg/kg/injection, schedule: Q01DX005 (ip), vehicle: saline 93 % of control | dose: 6.0 mg/kg/injection, schedule: Q01DX005 (ip), vehicle: saline 95 % of control | dose: 6.25 mg/kg/injection, schedule: Q01DX005 (ip), vehicle: saline with Tween-80 92 % of control

C[n+]1ccccc1-c1ccc[n+](CCC[n+]2cccc(-c3cccc[n+]3C)c2)c1
inactive: [1] 105 % of control | [2] 102 % of control | [3] 108 % of control

COC(=O)C(N)Cc1cn(Cc2ccccc2)cn1 (centres undefined)
inactive: [4] 95 % of control | [5] 96 % of control | [6] 96 % of control

c1ccc(SCCSCCSc2ccccc2)cc1
inactive: [4] 105 % of control | [5] 101 % of control | [6] 106 % of control

CC(=O)c1coc2c(c(C)nn2-c2ccccc2)c1=O
inactive: dose: 7.5 mg/kg/injection, schedule: Q01DX005 (ip), vehicle: Klucel (hydroxypropylcellulose) (HPC) 99 % of control | dose: 15.0 mg/kg/injection, schedule: Q01DX005 (ip), vehicle: Klucel (hydroxypropylcellulose) (HPC) 100 % of control | dose: 30.0 mg/kg/injection, schedule: Q01DX005 (ip), vehicle: Klucel (hydroxypropylcellulose) (HPC) 100 % of control

C[P+]1(C)CCCCC1
inactive: dose: 100.0 mg/kg/injection, schedule: Q01DX001 (ip), vehicle: saline 98 % of control | dose: 200.0 mg/kg/injection, schedule: Q01DX001 (ip), vehicle: saline 91 % of control

O=C(C1CC2CCC1C2)C1CC2CCC1C2 (centres undefined)
inactive: dose: 28.2 mg/kg/injection, schedule: Q01DX009 (ip), vehicle: saline with Tween-80 100 % of control | dose: 56.5 mg/kg/injection, schedule: Q01DX009 (ip), vehicle: saline with Tween-80 95 % of control | dose: 113.0 mg/kg/injection, schedule: Q01DX009 (ip), vehicle: saline with Tween-80 100 % of control
